Measurements: US10966994B2, “Thromboxane receptor antagonists” (ATXA THERAPEUTICS LIMITED, priority 2015, dated 2021)

Tested on: MCT-induced PAH
Experiment: Monocrotoline (MCT)-induced model of pulmonary arterial hypertension (PAH) in rats
Type: in vivo, rat
Conditions: for lumen: total vessel diameter ratio versus animals treated with MCT-alone: day 28, oral BID, NTP42 and TP20 0.25 mg/kg/dose, Sildenafil 50 mg/kg/dose
Method: FIGS. 19-23 show the efficacy of NTP42 in the monocrotoline (MCT)-induced model of pulmonary arterial hypertension (PAH) in rats. In brief, male Wistar/Kyoto rats were given a single dose of MCT (60 mg/kg, subcutaneously) and then treated with twice daily doses (oral dosing) for 28 days with either the drug vehicle, the test article NTP42 (0.25 mg/kg/dose, BID) or with the reference compounds Sildenafil (50 mg/kg/dose, BID) or TP20 (0.25 mg/kg/dose, BID). As a control, a group of rats were left untreated, i.e., no MCT or therapeutic drugs. At Day 28, post-MCT induction, rats were anaesthetised for cardiac surgery & hemodynamic parameters recorded. Thereafter, the trachea, heart & lungs were removed en masse, the wet weights of the heart & lungs recorded and then the lungs were harvested, fixed and processed for histopathology.
Aperio's ImageScope was used to analyze the digitally scanned H&E stained lung sections, where 10 random squares (approx. size or each square=1×10^6 μm^2) per lower, middle and upper section of lung tissue were selected for analysis. Within each square, all blood arterioles (complete arterioles within each square and those touching the right & bottom were assessed but not the left or top of the squares) were measured in ImageScope for luminal and total vessel diameter where the ratio of lumen to total vessel diameter was determined for each arteriole.
FIGS. 24-27 show the effect of the test articles on the mean (±S.E.M.) lumen: total vessel diameter ratio for all arterioles (Total) and the arterioles categorized by size: small, <50 μm total diameter; medium, 50-100 μm and large, >100 μm.
FIG. 27 presents data representing the mean (±SEM) lumen: total vessel diameter ratio for large arterioles (>100 μm).

In the case of `CC(C)(C)NC(=O)NS(=O)(=O)c1cc(C#N)ccc1Oc1cccc(-c2ccc(OC(F)F)cc2)c1` [NTP42], the “efficacy in the MCT-induced PAH model (hemodynamic and histological features)” value (MCT 60 mg/kg s.c., oral 0.25 mg/kg/dose BID for 28 days) is reported as “efficacious” and the “lumen: total vessel diameter ratio versus animals treated with MCT-alone” value is reported as “significantly increased”.

In the case of `COc1ccc(-c2cccc(Oc3ccc([N+](=O)[O-])cc3S(=O)(=O)NC(=O)NC(C)(C)C)c2)cc1` [TP20, reference compound], the “lumen: total vessel diameter ratio versus animals treated with MCT-alone” value is reported as “significantly increased”.
